Source: patent publication US20220401385A1, “Combination Therapy Based on PD-1 Signaling Inhibitors” (Kyoto University, priority 2019, published 2022)

What was measured:
[1] = test system: CD8+ T cells in draining lymph nodes; assay: CD3/CD28 restimulation of draining lymph node CD8+ T cells of treated mice (3H uptake, IFN-γ ELISA); assay type: in vivo, C57BL/6 mice; conditions: combined use of SPD, 24 hours
Protocol: FIG. 2-1 a) Treated mice were analyzed for draining lymph nodes and the inside of tumor. Briefly, draining lymph nodes of mice were isolated 13 days after tumor inoculation, and stained with antibodies to CD8 and Sca-1. FACS diagram and percentages of Sca-1^+ cells in CD8^+ T cells are shown. b) CD8^+ T cells in isolated draining lymph nodes were stimulated with CD3/CD28 antibody beads. After 24 hours, cell proliferation was examined by means of ^3H uptake. At the same time, IFN-γ concentration in culture supernatant was measured. c) Tumor from the same mice as described above was treated with collagenase. Then, expression rates of PD-1 and Tim3 in tumor-infiltrating CD8^+ T cells were analyzed. d) Oxygen consumption rate (OCR) and extracellular acidification rate (ECAR) of draining lymph node CD8^+ T cells were measured with a Seahorse analyzer (N=3 wells). For statistical analysis, ANOVA was used. * p<0.05, ** p<0.01, *** p<0.001, **** p<0.0001.
IFN-γ levels in culture supernatant were measured quantitatively with mouse IFN-γ kit (BioLegend) following the instructions on the kit.

AMPK and mTOR signaling = assay: Western blotting of AMPK and mTOR signaling, CD44 high cells; assay type: cell-based, mice; conditions: SPD 0.2 μM, 1 hour and 2 hours
Protocol: FIG. 5 CD8^+ T cells were isolated from the spleen of mice without tumor inoculation, and further isolated into CD44^+ (CD44 high) and CD44^− (CD44 low) cell populations. a) CD44 low cells were simulated with CD3/CD28 antibody beads and SPD (0.2 μM). […] Protein expression levels after 1 hour and 2 hours were confirmed by western blotting with the respective indicated antibodies. As regards statistical analysis, t-test was used for comparison of two groups. * p<0.05, ** p<0.01, *** p<0.001, **** p<0.0001.
CD8^+ T cells were isolated using mouse CD8 Microbeads (Miltenyi Biotec or Mojo). After washing with PBS twice, 2×10^6 cells were solubilized in a lysis buffer containing 30 mM Tris-HCl (pH. 7.4), 150 mM NaCl, 10% glycerol, 0.1% SDS, 1% Triton-X-100, 0.05% Na-Doc, 5 mM EDTA (pH. 8.0), protease inhibitor mixture (Roche Molecular Biochemicals) and phosphatase inhibitors (Nacalai Tesque). After measurement of protein concentrations by DC protein assay (Bio-Rad), 4 μg of proteins was mounted on 4 to 20% gradient Mini-PROTEAN TGX Gels (Bio-Rad) and electroblotted onto nitrocellulose membranes, which were then incubated in a blocking buffer of TBS containing 1% BSA. Primary antibody incubations were carried out overnight at 4° C. in blocking buffer. After washing, secondary antibody incubations were carried out at room temperature for 40 min in blocking buffer. […]

LLC cells = assay: LLC tumor model; assay type: in vivo, C57BL/6 mice; conditions: SPD 4 mg/kg + PD-L1 antibody
Protocol: FIG. 2-2 a-b) MethA or CT26 cells were intradermally inoculated into BALB/c mice. Ten days after inoculation, PD-L1 antibody (2 mg/kg), PD-L1 antibody+SPD (1 mg/kg for Meth A, 4 mg/kg for CT26) or SPD alone was administered. c) LLC cells were intradermally inoculated into C57BL/6 mice. Ten days after inoculation, mice were treated in the same manner as described in a-b) above. SPD was administered at 4 mg/kg. d) MC38 cells were inoculated into C57BL/6 Rag2^−/− mice. Ten days after inoculation, mice were treated in the same manner as described in a-b) above. SPD was administered at 5 mg/kg. Tumor growth curve and survival curve are shown.

CD8+ T cells = assay: Seahorse ATP production and SRC of draining lymph node CD8+ T cells of treated aged mice; assay type: in vivo; conditions: 56-week old mice, SPD combination treatment group
Protocol: FIG. 7 MC38 cells (5×10^5) were intradermally inoculated into 56-week old mice, which were treated along with the treatment schedule described in FIG. 1. PD-L1 antibody (2 mg/kg) and SPD (2 mg/kg) were used. a) Tumor growth curve and survival curve are shown. b) The frequency of CD8^+ T cells among lymphocytes infiltrating into tumor (in CD45^+ gate) and the absolute number of CD8^+ T cells per mg tumor 13 days after tumor inoculation are shown. c) CD8^+ T cells were isolated from spleen cells on the same schedule as b) and cultured for 20 hours under the stimulation with CD3/CD28. Cell proliferation was examined by means of ^3H uptake. d) CD8^+ T cells were isolated from draining lymph nodes on the same schedule as b) and glycolytic pathway-derived or mitochondrial metabolism-derived ATP production was calculated by Seahorse. e) Spare respiratory capacity (SRC) was also calculated in the experiment (d).
Oxygen consumption rates were measured using an XF96 Extracellular Flux Analyzer (Seahorse Bioscience). CD8^+ T cells (4×10^5) per well were seeded in a determined XF96 plate. […] In brief, basal OCR measurement was performed […] sequential addition of oligomycin, FCCP, and rotenone/antimycin A. SRC and ATP production rates were calculated by the following formulas: […]

Compound: NCCCCNCCCN [SPD, spermidine]
- cell proliferation of isolated CD8+ T cells as stimulated with CD3 ([1]; 3H uptake): enhanced
- IFN-γ production of isolated CD8+ T cells as stimulated with CD3 ([1]; culture supernatant): enhanced
- expression levels of pAMPK and its downstream molecules (pACC, pPKCa) (AMPK and mTOR signaling): markedly high
- antitumor effect of PD-1 inhibitory antibody with SPD (LLC cells): exhibit the antitumor effect
- SRCs of CD8+ T cells (CD8+ T cells): increased
- production of ATP, mitochondrial metabolism-dependent (CD8+ T cells): increased
